The conditions of data set [1]: pH 7.4.
For data set [2], the target named is T1, p120RasGAP N-terminal SH2 domain (residues 174-280, C236S, C261S) (UniProt P20936 174-280, C236S | C261S).
T1 sequence (looked up): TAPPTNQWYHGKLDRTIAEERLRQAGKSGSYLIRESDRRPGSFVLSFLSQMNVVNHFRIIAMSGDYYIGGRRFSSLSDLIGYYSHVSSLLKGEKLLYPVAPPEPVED
Briefly: co-crystallisation.

Non-standard residues stand in square brackets, D forms with d. No end group written: not given here. pY = N[C@@H](Cc1ccc(OP(=O)(O)O)cc1)C(=O)O

As to D[pY]AEPMDA [pY-1087], the “Maximum Solubility” value in data set [1] was 10000 µg/mL.

B1: p190RhoGAP pTyr-1105 phosphopeptide (residues 1100-1112) (peptide)
peptide: Ac-EEENI[pY]SVPHDST-NH2
SMILES: CC[C@H](C)[C@H](NC(=O)[C@H](CC(N)=O)NC(=O)[C@H](CCC(=O)O)NC(=O)[C@H](CCC(=O)O)NC(=O)[C@H](CCC(=O)O)NC(C)=O)C(=O)N[C@@H](Cc1ccc(OP(=O)(O)O)cc1)C(=O)N[C@@H](CO)C(=O)N[C@H](C(=O)N1CCC[C@H]1C(=O)N[C@@H](Cc1c[nH]cn1)C(=O)N[C@@H](CC(=O)O)C(=O)N[C@@H](CO)C(=O)N[C@H](C(N)=O)[C@@H](C)O)C(C)C
Consider B1, for which the binding result in data set [2] is on record as “binds”.

For the origin of these results see publication PMC11059313 (Methods in molecular biology (Clifton, N.J.), 2023).
